Test results: patent publication US10519099B2, “Cystobactamides” (priority 2014, dated 2019)
Positions of bridges follow the written chain, without caps; N, C: chain ends. Non-standard residues stand in square brackets, D forms with d. Residues, ends and D or L forms follow the SMILES beside them. *: point of attachment. Ileψ(thiazoline)Cys = CC[C@H](C)[C@H](N)C1=N[C@H](C(=O)*)CS1; dOrn = NCCC[C@@H](N)C(=O)O

Test system: Cystobacter velatus MCy8071
Experiment: Antibiotic resistance of producer strain MCy8071
Type: cell-based
Settings: final concentration 50 μg ml^−1
Method: MCy8071 is resistant against the following antibiotics: ampicillin, gentamycin, hygromycin, polymycin, bacitracin, spectinomycin, neomycin, and fusidinic acid. Weak growth is possible with cephalosporin and kasugamycin and no growth is possible with thiostrepton, trimethoprin, kanamycin, and oxytetracycline (final concentration of all antibiotics was adjusted to 50 μg ml^−1).

Compound	growth of strain MCy8071 in presence of antibiotic
CC1(C)S[C@@H]2[C@H](NC(=O)[C@H](N)c3ccccc3)C(=O)N2[C@H]1C(=O)O [ampicillin]	resistant
CC[C@H](C)[C@H](N)C1=N[C@H](C(=O)N[C@@H](CC(C)C)C(=O)N[C@H](CCC(=O)O)C(=O)N[C@H](C(=O)N[C@H]2CCCCNC(=O)[C@H](CC(N)=O)NC(=O)[C@@H](CC(=O)O)NC(=O)[C@H](Cc3cnc[nH]3)NC(=O)[C@@H](Cc3ccccc3)NC(=O)[C@H]([C@@H](C)CC)NC(=O)[C@@H](CCCN)NC2=O)[C@@H](C)CC)CS1 [bacitracin] ({Ileψ(thiazoline)Cys}-L[dE]IK[dOrn]I[dF]H[dD]N; lactam 4-C)	resistant
CC(=O)O[C@H]1C[C@@]2(C)[C@@H](C[C@@H](O)[C@H]3[C@@]4(C)CC[C@@H](O)[C@@H](C)[C@@H]4CC[C@@]32C)/C1=C(\CCC=C(C)C)C(=O)O [fusidinic acid]	resistant
C[C@H]1O[C@H](O[C@H]2[C@H](O)[C@@H](O)[C@@H](O)[C@H](O)[C@@H]2O)[C@@H](N)C[C@@H]1NC(=N)C(=O)O [kasugamycin]	Weak growth
CN[C@@H]1[C@H](O)[C@H](NC)[C@H]2O[C@@]3(O)C(=O)C[C@@H](C)O[C@H]3O[C@@H]2[C@H]1O [spectinomycin]	resistant
C=C(NC(=O)C(=C)NC(=O)c1csc(C2=N[C@@H]3c4csc(n4)[C@H]4NC(=O)c5csc(n5)[C@H]([C@](C)(O)[C@@H](C)O)NC(=O)[C@H]5CSC(=N5)/C(=C/C)NC(=O)[C@H]([C@@H](C)O)NC(=O)c5csc(n5)[C@]3(CC2)NC(=O)[C@H](C)NC(=O)C(=C)NC(=O)[C@H](C)NC(=O)[C@H]([C@@H](C)CC)N[C@@H]2C=Cc3c([C@H](C)O)cc(nc3[C@H]2O)C(=O)O[C@@H]4C)n1)C(N)=O [thiostrepton]	no growth
COc1cc(Cc2cnc(N)nc2N)cc(OC)c1OC [trimethoprin]	no growth
gentamycin	resistant
neomycin	resistant
polymycin	resistant
